The text below walks through data of article PMC8869358, “High-Throughput Chemical Screening and Structure-Based Models to Predict hERG Inhibition” (Biology, 2022).

Structures are written as SMILES. Counter-ions that a name gives are not always drawn.

In this experiment the target is hERG (Homo sapiens, UniProt Q12809). In words: cell-based. As to conditions: (-LOG10(IC50), µM).
hERG, sequence (Q12809 whole entry): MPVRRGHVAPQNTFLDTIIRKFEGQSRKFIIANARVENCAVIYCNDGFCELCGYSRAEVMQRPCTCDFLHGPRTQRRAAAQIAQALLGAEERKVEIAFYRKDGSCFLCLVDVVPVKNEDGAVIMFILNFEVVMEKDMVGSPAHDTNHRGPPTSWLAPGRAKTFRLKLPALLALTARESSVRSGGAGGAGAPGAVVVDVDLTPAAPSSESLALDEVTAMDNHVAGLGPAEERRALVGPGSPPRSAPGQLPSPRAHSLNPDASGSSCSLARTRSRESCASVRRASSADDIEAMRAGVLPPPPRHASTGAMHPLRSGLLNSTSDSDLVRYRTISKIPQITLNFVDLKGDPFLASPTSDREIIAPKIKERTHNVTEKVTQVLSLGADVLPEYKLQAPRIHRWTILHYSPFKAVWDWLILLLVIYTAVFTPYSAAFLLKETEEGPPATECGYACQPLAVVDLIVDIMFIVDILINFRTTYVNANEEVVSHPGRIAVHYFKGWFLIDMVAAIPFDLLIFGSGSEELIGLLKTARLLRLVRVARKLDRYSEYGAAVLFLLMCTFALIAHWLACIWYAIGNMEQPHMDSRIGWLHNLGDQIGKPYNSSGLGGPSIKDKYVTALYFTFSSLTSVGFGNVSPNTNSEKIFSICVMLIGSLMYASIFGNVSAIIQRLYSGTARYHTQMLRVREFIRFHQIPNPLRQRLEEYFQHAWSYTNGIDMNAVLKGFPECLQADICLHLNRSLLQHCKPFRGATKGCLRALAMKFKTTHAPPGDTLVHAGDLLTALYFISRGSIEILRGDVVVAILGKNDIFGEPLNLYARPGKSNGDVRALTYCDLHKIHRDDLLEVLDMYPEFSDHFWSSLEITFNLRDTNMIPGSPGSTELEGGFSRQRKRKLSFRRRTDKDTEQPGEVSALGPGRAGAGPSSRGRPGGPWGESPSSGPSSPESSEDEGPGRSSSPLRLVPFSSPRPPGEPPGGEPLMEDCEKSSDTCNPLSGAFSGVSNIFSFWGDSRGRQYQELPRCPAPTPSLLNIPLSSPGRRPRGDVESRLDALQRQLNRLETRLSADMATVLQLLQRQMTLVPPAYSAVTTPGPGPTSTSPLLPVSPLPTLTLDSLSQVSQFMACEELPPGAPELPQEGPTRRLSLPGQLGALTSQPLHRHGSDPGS
The IC50 is the point on the concentration scale where inhibition reaches its midpoint. Lower therefore signals greater potency in that assay. As to `CCCCOCCOC(=O)c1ccccc1C(=O)OCCOCCCC` [Bis(2-butoxyethyl) phthalate], half-maximal inhibition (IC50) required 20.2 µM.

In turn, `CN(C)c1ccc(C(=O)c2ccc(N(C)C)cc2)cc1` [Bis(4-(dimethylamino)phenyl)methanone] gave an IC50 of 57.1 µM. Regarding `Oc1ccc(C(=C(Cl)Cl)c2ccc(O)cc2)cc1` [Bis(4-hydroxyphenyl)-2,2-dichloroethylene], half-maximal inhibition (IC50) required 47 µM. For the molecule `CN(C)C(=S)SSC(=S)N(C)C` [Bis(dimethylaminothiocarbonyl) disulfide], the IC50 was 22.1 µM. The molecule `O=S(=O)(C(Cl)(Cl)Cl)C(Cl)(Cl)Cl` [Bis(trichloromethyl)sulfone] gave an IC50 of 18.8 µM. The result for `O=C1C=CC(=O)N1c1ccc(Cc2ccc(N3C(=O)C=CC3=O)cc2)cc1` [Bismaleimide] reads 43.6 µM. Consider `Oc1ccc(C(c2ccc(O)cc2)(C(F)(F)F)C(F)(F)F)cc1` [Bisphenol AF], for which 43.4 µM corresponded to half-maximal inhibition (IC50). With `Cc1ccc(C(=O)Oc2ccc(C(O)CNC(C)(C)C)cc2OC(=O)c2ccc(C)cc2)cc1` (stereo not shown) [Bitolterol], the midpoint of inhibition, the IC50, lay at 5.78 µM.

As to `CCN1CCN(c2cc(-c3ccc(F)cc3)c3c(n2)CCCCCC3)CC1` [Blonanserin], the IC50 was 3.99 µM. `Cc1cc2c(OCC(CNC(C)(C)C)OC(=O)c3ccccc3)cccc2[nH]1` (stereo not shown) [Bopindolol] showed an IC50 of 21.3 µM. In turn, `CN(Cc1cc(Br)cc(Br)c1N)C1CCCCC1` [Bromhexine hydrochloride] had an IC50 of 12.5 µM. Molecule `CN(C)CCOC(c1ccccc1)c1ccc(Br)cc1` (stereo not shown) [Bromodiphenhydramine] gave an IC50 of 4.09 µM. Molecule `CCCCCCCC(=O)Oc1c(Br)cc(C#N)cc1Br` [Bromoxynil octanoate] gave an IC50 of 26.4 µM. `CC(C)(Cc1c[nH]c2ccccc12)NCC(O)COc1ccccc1C#N` (stereo not shown) [Bucindolol] had an IC50 of 8.49 µM.

With `Cc1ccc(Cl)c(OCC(O)CNC(C)(C)C)c1` (stereo not shown) [Bupranolol], the midpoint of inhibition, the IC50, lay at 20.1 µM. `CC(C)N1C(=O)N(c2ccccc2)CS/C1=N\C(C)(C)C` [Buprofezin] showed an IC50 of 19.5 µM. In the case of `CCCCN(CCCC)CCCOC(=O)c1ccc(N)cc1` [Butacaine], the IC50 is 14.5 µM. The molecule `CN(Cc1ccc(C(C)(C)C)cc1)Cc1cccc2ccccc12` [Butenafine] gave an IC50 of 12 µM. For the molecule `OC(C#CCN1CCCC1)(c1ccccc1)c1ccccc1` [Butinoline], the IC50 is 19 µM. `Clc1ccc(CCC(Cn2ccnc2)Sc2c(Cl)cccc2Cl)cc1` (stereo not shown) [Butoconazole nitrate] gave a half-inhibitory concentration (IC50) of 5.35 µM. Consider `CCC(C)Nc1c([N+](=O)[O-])cc(C(C)(C)C)cc1[N+](=O)[O-]` (stereo not shown) [Butralin], for which inhibition was half-maximal at 23.6 µM (IC50). As for `CC(CC1c2ccccc2CCc2ccccc21)CN(C)C` (stereo not shown) [Butriptyline], it took 16.9 µM to reach half-maximal inhibition (IC50). `Cc1cc(C(C)(C)C)c(O)c(C(C)(C)C)c1` [Butylated hydroxytoluene] showed an IC50 of 20.7 µM. As to `CCCCOC(=O)COC(=O)c1ccccc1C(=O)OCCCC` [Butylphthalyl butylglycolate], inhibition was half-maximal at 20.9 µM (IC50).

The molecule `Nc1ccc(N=Nc2ccccc2)c(N)c1` [C.I. Basic Orange 2] showed an IC50 of 19.8 µM.

For the molecule `Cc1cc(-c2ccc(N=Nc3cc(S(=O)(=O)O)c4ccccc4c3N)c(C)c2)ccc1N=Nc1cc(S(=O)(=O)O)c2ccccc2c1N` [C.I. Direct Red 2], half-maximal inhibition (IC50) was put at 21.2 µM. Regarding `O=C1c2c(O)ccc(Nc3ccc(CCO)cc3)c2C(=O)c2c([N+](=O)[O-])ccc(O)c21` [C.I. Disperse Blue 27], the midpoint of inhibition, the IC50, lay at 43.6 µM.

For the molecule `CCN(CCC#N)c1ccc(N=Nc2c(Cl)cc([N+](=O)[O-])cc2Cl)cc1` [C.I. Disperse Orange 37], the IC50 is 40.4 µM. `CCCN(CCC)C(=O)CN` [C.I. Solvent Black 5] had an IC50 of 9.21 µM.

In turn, `O=C1OC2(c3ccccc31)c1ccc(O)c(Br)c1Oc1c2ccc(O)c1Br` [C.I. Solvent Red 72] showed an IC50 of 34.7 µM. `Cc1cc2c3c(c1)C(c1ccccc1)=N[C@@H](NC(=O)c1ccncc1)C(=O)N3CC2` [CI-1018] gave an IC50 of 25.5 µM. With `Cc1nccn1-c1ccc(Sc2cccc(C3(C(N)=O)CCOCC3)c2)cc1` [CJ-013610], the IC50 was 47.1 µM. Molecule `NC(=O)N(O)[C@@H]1C=C[C@H](Oc2cccc(Oc3ccc(F)cc3)c2)C1` [CJ-013790] gave an IC50 of 38.9 µM. Molecule `CCOC(=O)NNc1ccc(N(CC)CC(C)O)nn1` (stereo not shown) [Cadralazine] gave an IC50 of 23.9 µM. For the molecule `CCN(CC)CCNC(C(=O)OCCC(C)C)c1ccccc1` (stereo not shown) [Camylofin], the IC50 was 6.74 µM. The result for `N#CC(C#N)=NNc1cccc(Cl)c1` [Carbonyl cyanide chlorophenylhydrazone] reads 36 µM; that for `CCOC(=O)C(Cl)Cc1cc(-n2nc(C)n(C(F)F)c2=O)c(F)cc1Cl` (stereo not shown) [Carfentrazone-ethyl], 28.6 µM. On to `COc1ccc2cc1Oc1ccc(cc1)C[C@H]1c3c(cc4c(c3Oc3cc5c(cc3OC)CCN(C)[C@@H]5C2)OCO4)CCN1C` [Cepharanthine], for which the IC50 is 10.3 µM. `ClC1=C(Cl)C2(Cl)C3C(Cl)C(Cl)CC3C1(Cl)C2(Cl)Cl` (stereo not shown) [Chlordane] had an IC50 of 30.9 µM. On to `CCOP(=S)(OCC)OC(Cl)C(Cl)(Cl)Cl` (stereo not shown) [Chlorethoxyfos], for which the IC50 is 25.5 µM. `CCOCn1c(-c2ccc(Cl)cc2)c(C#N)c(Br)c1C(F)(F)F` [Chlorfenapyr]: the IC50 was 15.5 µM. In turn, `CC(O)(c1ccc(Cl)cc1)c1ccc(Cl)cc1` [Chlorfenethol] had an IC50 of 46.2 µM.

Consider `CCOC(=O)C(O)(c1ccc(Cl)cc1)c1ccc(Cl)cc1` [Chlorobenzilate], for which half-maximal inhibition (IC50) was put at 33.7 µM. The result for `CC(C)OC(=O)C(O)(c1ccc(Cl)cc1)c1ccc(Cl)cc1` [Chloropropylate] reads 22.7 µM. `CN(C)CCN(Cc1ccc(Cl)cc1)c1ccccn1` [Chloropyramine hydrochloride]: the IC50 is 2.39 µM. For the molecule `C[C@@H](NCCCc1cccc(C(F)(F)F)c1)c1cccc2ccccc12` [Cinacalcet hydrochloride], the IC50 was 12 µM.

For `CC(C(O)c1ccccc1)N(C)C/C=C/c1ccccc1` (stereo not shown) [Cinnamedrine], half-maximal inhibition (IC50) required 12 µM. As for `COc1cc(N)c(Cl)cc1C(=O)NC1CCN(Cc2ccccc2)CC1` [Clebopride maleate], the IC50 was 15.7 µM. Molecule `Clc1ccc(Cn2c(CN3CCCC3)nc3ccccc32)cc1` [Clemizole hydrochloride] had an IC50 of 1.34 µM.

On to `CCCC(=O)O[C@]1(C(=O)CCl)[C@@H](C)C[C@H]2[C@@H]3CCC4=CC(=O)C=C[C@]4(C)[C@@]3(F)C(=O)C[C@@]21C` [Clobetasone butyrate], for which the IC50 was 8.01 µM. The result for `NC(=O)C1(N2CCCCC2)CCN(CCCN2c3ccccc3CCc3ccc(Cl)cc32)CC1` [Clocapramine] reads 1.45 µM; that for `C#CCOC(=O)[C@@H](C)Oc1ccc(Oc2ncc(Cl)cc2F)cc1` [Clodinafop-propargyl], 41 µM.

`CCN(CC)CCNC(=O)COc1ccc(Cl)cc1` [Clofexamide] showed an IC50 of 16.3 µM. With `Clc1ccc(C(OCCN2CCCCC2)c2ccccc2)cc1` (stereo not shown) [Cloperastine hydrochloride], the IC50 was 0.849 µM.

The molecule `CCCCCC(C)OC(=O)COc1ccc(Cl)c2cccnc12` (stereo not shown) [Cloquintocet-mexyl] gave an IC50 of 16.1 µM.

In turn, `CCOC(=O)COc1ccc2c(C)c(CCN(CC)CC)c(=O)oc2c1Cl` [Cloricromen hydrochloride] showed an IC50 of 20.5 µM.

Molecule `CN1CCN(C2=Nc3ccccc3Sc3ccc(Cl)cc32)CC1` [Clothiapine] had an IC50 of 21.3 µM. For `Clc1ccccc1C(c1ccccc1)(c1ccccc1)n1ccnc1` [Clotrimazole], the IC50 is 25.5 µM.

The molecule `CCOP(=S)(OCC)Oc1ccc2c(C)c(Cl)c(=O)oc2c1` [Coumaphos] had an IC50 of 40.4 µM.

The molecule `CCN1CCCC(OC(=O)C(c2ccccc2)c2ccccc2)C1` (stereo not shown) [Crapinon] gave an IC50 of 5.35 µM.

On to `CC1CCCCN1CCCOC(=O)c1ccc(OC2CCCCC2)cc1` (stereo not shown) [Cyclomethycaine], for which the IC50 was 2.68 µM. With `O=C1CCCCCCCCCCCCCC1` [Cyclopentadecanone], the IC50 was 24.5 µM. Regarding `CCCCOC(=O)[C@@H](C)Oc1ccc(Oc2ccc(C#N)cc2F)cc1` [Cyhalofop-butyl], inhibition was half-maximal at 4.87 µM (IC50). As for `CCCCCCOC(=O)NC(=N)c1ccc(NCc2nc3cc(C(=O)N(CCC(=O)OCC)c4ccccn4)ccc3n2C)cc1` [Dabigatran etexilate], it took 0.515 µM to reach half-maximal inhibition (IC50). With `CN(C)[C@@H](CCOc1cccc2ccccc12)c1ccccc1` [Dapoxetine], the IC50 is 7.56 µM. The result for `CCCCCCCCCCOCC(O)CN` (stereo not shown) [Decominol hydrochloride] reads 20.5 µM; that for `CC(C)c1ccc2c(c1)CC[C@H]1[C@](C)(CN)CCC[C@]21C` [Dehydroabietylamine acetate], 13.3 µM.

The molecule `CC(C)Nc1cccnc1N1CCN(C(=O)c2cc3cc(NS(C)(=O)=O)ccc3[nH]2)CC1` [Delavirdine] gave an IC50 of 11.1 µM. Consider `CC[N+](CC)(CC(=O)Nc1c(C)cccc1C)Cc1ccccc1` [Denatonium saccharide], for which half-maximal inhibition (IC50) required 27.1 µM. The result for `CCCCNc1ccc(C(=O)OCCN(CC)CC)cc1` [Depolipon] reads 19 µM; that for `COc1ccc(-c2cc(C(F)F)nn2-c2ccc(S(N)(=O)=O)cc2)cc1F` [Deracoxib], 23.9 µM. As for `CN1C(=O)[C@@H](NC(=O)c2cc3ccccc3[nH]2)N=C(c2ccccc2)c2ccccc21` [Devazepide], the IC50 is 9.52 µM.

`O=C(N=NC(=O)OCc1ccccc1)OCc1ccccc1` [Dibenzyl diazene-1,2-dicarboxylate] showed a concentration for half-maximal inhibition (IC50) of 21.9 µM. The molecule `CCCCOc1cc(C(=O)NCCN(CC)CC)c2ccccc2n1` [Dibucaine] gave an IC50 of 6.74 µM. Next, `CN(C)S(=O)(=O)N(SC(F)(Cl)Cl)c1ccccc1` [Dichlofluanid]: 17.4 µM. `O=C1C(Cl)=C(Cl)C(=O)c2ccccc21` [Dichlone]: half-maximal inhibition (IC50) was put at 21.9 µM. Next, `Oc1ccc(Cl)cc1Cc1cc(Cl)ccc1O` [Dichlorophen]: 27 µM; `OC(c1ccc(Cl)cc1)(c1ccc(Cl)cc1)C(Cl)(Cl)Cl` [Dicofol]: 30.9 µM. Molecule `O=C(OC1CCCCC1)c1ccccc1C(=O)OC1CCCCC1` [Dicyclohexyl phthalate] had a half-maximal inhibitory concentration (IC50) of 23.1 µM.
